{
  "source": "patent US6566081B1",
  "about": "“Methods of identifying a compound which modulates the non-transcriptional non-map-kinase induced effects of steroid hormones” (The Brigham and Women's Hospital, Inc., priority 1999, dated 2003)",
  "key": {"[1]": {"tested_on": "PI3-kinase", "test": "PI3-kinase assay on p85 immunoprecipitates of endothelial cell lysates", "format": "cell-based, human", "conditions": "for stimulation of PI3-kinase activity: E2/αE2 10 nM, insulin 100 nM; for effect on E2-induced PI3-kinase activation: E2 10 nM 20 min, ICI 10 μM, wortmannin 30 nM", "experimental": "PI3kinase activity in endothelial cell lysates was assayed using the borate thin layer chromatography method, as described.^34 Following a 6 h incubation in serum- and estrogen-deficient medium 199, endothelial cells were treated according to the indicated conditions, washed, and harvested in ice-cold lysis buffer (137 mM NaCl, 20 mM Tris-HCl, pH 7.4, 1 mM CaCl2, 1 mM Mg Cl2, 0.1 mM Na3VO4, 1% NP-40). After pelleting the cell debris, the supernatant was incubated for 1 hour at 4° C. with 5 μL of a rabbit antiserum directed against the p85 regulatory subunit of the PI3-kinase (Upstate Biotechnology, Lake Placid, N.Y.), and immunoprecipitated with the addition of 50 μL of a 1:1 slurry of protein A-agarose for 1 hour at 4° C. Following centrifugation, the immunoprecipitates were washed three times with lysis buffer, three times with 0.1 M Tris-HCl, pH 7.4, 5 mM LiCl, 0.1 mM Na3VO4, followed by two washes with 10 mM Tris-HCl, pH 7.4, 150 mM NaCl, 5 mM EDTA, 0.1 mM Na3VO4.\nThe immunoprecipitates were then mixed with 50 μL Tris-HCl, pH 7.4, 150 mM NaCl, 5 mM EDTA, 20 μg of phosphatidylinositol (Sigma, Saint Louis, Mo.), 10 μL 100 mM MgCl2 and 5 μL of a 0.88 mM ATP, 20 mM MgCl2 solution, containing 30 μCi of [γ-^32P]ATP (3000 Ci/mmol; NEN Life Science Products, Boston, Mass.). […] The phospholipids were extracted with 160 μL of chloroform/methanol (1:1, v/v). 50 μL of the organic phase, containing the labeled PI3-kinase products were separated by borate thin layer chromatography on glass-backed Silica Gel 60 plates (EM Separations, Gibbstown, N.J.) pretreated with a solution containing 25 mM trans-1,2-diaminocyclohexane-N,N,N′N′-tetraacetic acid (CDTA, Sigma, Saint Louis, Mo.), 66% (v/v) ethanol and 0.06 N NaOH, dried for 1 hour and then baked at 100° C. for 15 minutes. The chromatography was developed with a solution containing 37.5% (v/v) methanol, 30% (v/v) chloroform, 22.5% (v/v) pyridine (Sigma, Saint Louis, Mo.), 1.33% (v/v) formic acid, […] boric acid and 8.5 mM butylated hydroxytoluene (Sigma, Saint Louis, Mo.), briefly dried and exposed to autoradiography."}, "[2]": {"tested_on": "Akt/PKB", "test": "Immunoblotting of Akt phosphorylation (Thr 308, Ser 473)", "format": "cell-based, human", "experimental": "(§1) After the different treatments, serum-starved endothelial cells were rinsed once with ice-cold PBS before addition of the lysis buffer (100 mM Tris-HCl, pH 6.8, 4% SDS, 20% glycerol, 1 mM sodium orthovanadate, 1 mM NaF, and 1 mM phenylmethylsulfonylfluoride) to the dishes on an ice tray. The cell lysates were scraped, boiled, and centrifuged for 2 min at 13000 rpm. Total cell lysates (40 μg of protein) and low range molecular weight markers (BIO-RAD, Hercules, Calif.) were separated by SDS-polyacrylamide gel electrophoresis (12% running, 4% stacking), electrophoretically transferred to polyvinylidene fluoride membranes (Immobilon P, 0.45 μm pore size) and incubated overnight at 4° C. with blocking solution (5% skim milk in TBS—0.1% Tween 20). Affinity-purified rabbit antibodies (0.4 μg of IgG/ml) vs. Akt, (Ser 473) phospho-Akt or (Thr 308) phospho-Akt (New England BioLabs, Beverly, Mass.), Erk1/2, (Tyr 204) phospho-Erk-1/-2 (Calbiochem, San Diego, Calif.) were incubated with the membranes overnight at 4° C. in TBS—0.1% Tween 20 containing 5% BSA. The blots were washed three times with TBS—0.1% Tween 20 and then treated with donkey anti-rabbit antibody (1:4000 dilution) coupled to horseradish peroxidase. Immunodetection was accomplished using the enhanced chemoluminescence kit (ECL Kit, Amersham Corp.)."}, "[3]": {"tested_on": "ERK 1 and 2", "test": "Immunoblotting of ERK 1/2 phosphorylation", "format": "cell-based, human", "conditions": "E2 10 nM, from 2 minutes", "experimental": "as §1"}, "[4]": {"tested_on": "PtdIns-3,4,5-P3", "test": "Endogenous PtdIns-3,4,5-P3 levels in non-transfected human endothelial cells", "format": "cell-based", "conditions": "E2 10 nM, insulin 100 nM"}, "[5]": {"tested_on": "PI3K", "test": "p-Tyr- and IRS-1-associated PI3K activity (immunoprecipitate)", "format": "cell-based, human", "conditions": "p-Tyr and IRS-1 immunoprecipitate"}, "[6]": {"tested_on": "mouse cremaster muscle venules", "test": "Model of vascular injury: ischemia and reperfusion in the mouse cremaster muscle (leukocyte rolling and adhesion)", "format": "in vivo", "conditions": "mice with 1.5 mg slow-release E2 tablets s.c.", "experimental": "(§2) Mice were anesthetized and the cremaster muscle was studied under intravital microscopy^28. Ischemia was induced by applying pressure to supplying arteries just sufficient to stop blood flow for 30 min. In some experiments, wortmannin (100 nM) or L-NAME (0.1 mM) was applied to the cremaster muscle during the ischemic period. The pressure was released for reperfusion, and the same vessels were recorded in each animal before and after I/R. The rolling velocities of 25 leukocytes were measured in each venule; sorted and averaged for each rank to construct cumulative histograms. The velocities of 3,750 leukocytes were measured in 150 venules before and after I/R. The number of firmly adherent leukocytes was measured before and after I/R in the same 200 μm long segments of venules."}, "[7]": {"target": "T1, eNOS (Mus musculus, UniProt P70313)", "T1 construct": "from tissue; host or cells: cremaster muscle of male C57BL/6 mice", "T1 sequence (P70313 2-1202)": "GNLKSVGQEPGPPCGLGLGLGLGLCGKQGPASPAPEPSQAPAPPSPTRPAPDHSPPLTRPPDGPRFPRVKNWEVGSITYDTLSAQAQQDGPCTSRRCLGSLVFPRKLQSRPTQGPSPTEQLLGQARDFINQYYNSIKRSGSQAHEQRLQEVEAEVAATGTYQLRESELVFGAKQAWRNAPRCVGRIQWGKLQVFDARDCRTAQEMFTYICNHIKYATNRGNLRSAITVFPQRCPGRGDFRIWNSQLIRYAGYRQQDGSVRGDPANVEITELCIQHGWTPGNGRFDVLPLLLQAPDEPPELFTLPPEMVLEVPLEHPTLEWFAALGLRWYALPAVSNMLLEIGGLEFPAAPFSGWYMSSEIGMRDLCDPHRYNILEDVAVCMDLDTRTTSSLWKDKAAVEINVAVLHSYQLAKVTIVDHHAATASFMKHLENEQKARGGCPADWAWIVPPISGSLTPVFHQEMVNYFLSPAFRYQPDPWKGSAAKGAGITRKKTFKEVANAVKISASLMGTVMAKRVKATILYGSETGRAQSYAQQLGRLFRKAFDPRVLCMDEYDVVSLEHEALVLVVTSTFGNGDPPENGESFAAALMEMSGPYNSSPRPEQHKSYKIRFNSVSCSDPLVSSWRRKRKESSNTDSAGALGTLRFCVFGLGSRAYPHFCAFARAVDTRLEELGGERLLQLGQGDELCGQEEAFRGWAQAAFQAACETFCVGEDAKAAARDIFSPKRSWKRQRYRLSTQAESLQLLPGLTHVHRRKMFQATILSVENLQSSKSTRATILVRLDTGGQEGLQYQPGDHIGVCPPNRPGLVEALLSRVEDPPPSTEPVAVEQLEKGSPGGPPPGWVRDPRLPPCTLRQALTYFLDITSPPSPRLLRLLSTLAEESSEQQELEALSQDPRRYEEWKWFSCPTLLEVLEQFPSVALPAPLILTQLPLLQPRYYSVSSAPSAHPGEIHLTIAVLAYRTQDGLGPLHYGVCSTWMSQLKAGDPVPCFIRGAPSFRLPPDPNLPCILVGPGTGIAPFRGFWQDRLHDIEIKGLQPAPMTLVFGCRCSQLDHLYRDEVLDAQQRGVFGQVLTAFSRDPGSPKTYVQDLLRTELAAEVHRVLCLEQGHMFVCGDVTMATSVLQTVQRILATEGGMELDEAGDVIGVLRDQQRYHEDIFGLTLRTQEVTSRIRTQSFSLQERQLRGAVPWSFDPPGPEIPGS", "test": "Cremaster eNOS activity in mice", "format": "in vivo", "conditions": "mice with 1.5 mg slow-release E2 tablets s.c.", "experimental": "as §2, with “venules. The following number of venules were studies for leukocyte adhesion: Untreated, 15 venules; E2-treated, 20 venules; E2-treated with wortmannin, 25 venules; E2-treated with L-NAME, 15 venules. Cremaster eNOS activity was measured in 3 untreated, 4 E2-treated, 5 E2-treated with wortmannin, and 4 E2-treated with L-NAME mice.” for “venules.”"}, "[8]": {"test": "Serum E2 level in mice implanted with E2 tablets", "format": "in vivo, mouse", "conditions": "mice implanted s.c. with 1.5 mg slow-release E2 tablets, 3-5 days"}, "[9]": {"tested_on": "eNOS", "test": "E2-stimulated eNOS activity in transfected murine fibroblasts", "conditions": "murine fibroblasts transfected with ERα and eNOS cDNAs"}, "[10]": {"conditions": "E2/αE2 10 nM, insulin 100 nM, 20 min"}},
  "note": "Entries after “also recorded” stand apart in the source; their conditions may differ.",
  "data": [
    {"molecule": "17β-estradiol [E2]", "values": [
      {"measurement": "stimulation of PI3-kinase activity", "setting": "[1]; 20 min", "value": "strong activation"},
      {"measurement": "increase in PI3-kinase activity compared to baseline", "setting": "[1]; E2 10 nM, 20 min", "value": "approximately 5 fold"},
      {"measurement": "PI3-kinase activity in the initial phase of stimulation", "setting": "[1]; E2 10 nM, ≤10 min", "value": "little or no PI3-kinase activity"},
      {"measurement": "Akt Ser 473 phosphorylation", "setting": "[2]; [10]", "value": "hyperphosphorylated after 20 minutes"},
      {"measurement": "Akt threonine (Thr 308) phosphorylation", "setting": "[2]; [10]", "value": "phosphorylated after 20 minutes; also recorded: increase in Akt phosphorylation"},
      {"measurement": "phosphorylation of ERK 1 and 2", "setting": "[3]", "value": "increased phosphorylation"},
      {"measurement": "endogenous PtdIns-3,4,5-P3 levels", "setting": "[4]", "value": "increased"},
      {"measurement": "p-Tyr- or IRS-1-associated PI3K activity", "setting": "[5]", "value": "did not increase"},
      {"measurement": "changes in leukocyte accumulation and rolling velocity following I/R", "setting": "[6]", "value": "prevented"},
      {"measurement": "increase in eNOS activity in cremaster muscle", "setting": "[7]", "value": 3.2, "unit": "fold"},
      {"measurement": "serum E2 level", "setting": "[8]", "value": "760 ± 30", "unit": "pg/mL"},
      {"measurement": "increase in eNOS activity, wild-type fibroblasts", "setting": "[9]", "value": 8, "unit": "fold"}
    ]},
    {"molecule": "C[C@]12CC[C@@H]3c4ccc(O)cc4C[C@@H](CCCCCCCCC[S+]([O-])CCCC(F)(F)C(F)(F)F)[C@H]3[C@@H]1CC[C@@H]2O", "note": "(some centres unmarked) [ICI 187,780]", "values": [
      {"measurement": "effect on E2-induced PI3-kinase activation", "setting": "[1]", "value": "full inhibition; also recorded: completely inhibited"},
      {"measurement": "effect on E2-induced PI3-kinase activation", "setting": "[1]; listed as ICI 182,780", "value": "completely blocked"},
      {"measurement": "effect on E2-induced Akt Ser 473 phosphorylation", "setting": "[2]; ICI 10 μM, wortmannin 30 nM", "value": "not inhibited"},
      {"measurement": "effect on E2-induced Akt Thr 308 phosphorylation", "setting": "[2]; ICI 10 μM, wortmannin 30 nM", "value": "blocked"}
    ]},
    {"molecule": "insulin: known activator of the PI3-kinase/Akt pathway", "values": [
      {"measurement": "stimulation of PI3-kinase activity", "setting": "[1]; 20 min", "value": "comparable increase"},
      {"measurement": "stimulation of PI3-kinase activity", "setting": "[1]; 20 min, listed as Insulin", "value": "marked activation"},
      {"measurement": "endogenous PtdIns-3,4,5-P3 levels", "setting": "[4]", "value": "rapidly increased"},
      {"measurement": "p-Tyr- or IRS-1-associated PI3K activity", "setting": "[5]", "value": "increases"}
    ]}
  ]
}
